Data reported in publication PMC5810560 (Chemico-biological interactions, 2017).
Where “and” joins values, the source holds several entries; their conditions need not be identical. Identical values can stand only once.

Columns and labels:
[1] = RS194B biodistribution / brain penetration in perfused tissues
[2] = RS194B plasma pharmacokinetics; conditions: for AUC0-t: t = 24 h
[3] = guinea pig, IV 100 mg/kg, total tissue weight
[4] = guinea pig, IV 200 mg/kg, total tissue weight
[5] = guinea pig, after IV administration, post dose
[6] = dose increase from 10 to 200 mg/kg (20-fold), IV
[7] = guinea pig plasma, single IM dose 50 mg/kg
[8] = guinea pig plasma, single IV dose 10 mg/kg
[9] = guinea pig plasma, single IV dose 50 mg/kg
[10] = guinea pig plasma, single IV dose 100 mg/kg
[11] = guinea pig plasma, single IV dose 200 mg/kg

## O=C(C=NO)NCCN1CCCCCC1 [RS194B]
[1]; [3]
  Tissue level at Cmax, percent of administered dose, Heart: 0.05 ± 0.01% of administered dose
  Tissue level at Cmax, percent of administered dose, Kidney: 3.81 ± 0.42% of administered dose
  Tissue level at Cmax, percent of administered dose, Liver: 8.32 ± 0.42% of administered dose
  Tissue level at Cmax, percent of administered dose, Lung: 0.77 ± 0.04% of administered dose
  Tissue level at Cmax, percent of administered dose, Spleen: 0.07 ± 0.01% of administered dose
[1]; guinea pig, IV 200 mg/kg, 0.08 hr (brain Cmax)
  brain/ plasma: 0.18 ± 0.013
[1]; guinea pig, IV 200 mg/kg, 0.25 hr
  brain/ plasma: 0.19 ± 0.012
[1]; guinea pig, IV 200 mg/kg, 0.5 hr
  brain/ plasma: 0.27 ± 0.080
[1]; guinea pig, IV 200 mg/kg, 1 hr
  brain/ plasma: 0.15 ± 0.028
[1]; guinea pig, IV 200 mg/kg, 2 hr
  brain/ plasma: 0.08 ± 0.009
[1]; guinea pig, IV 200 mg/kg, 4 hr
  brain/ plasma: 0.08 ± 0.005
[1]; guinea pig, IV 200 mg/kg, 8 hr
  brain/ plasma: 0.12 ± 0.010
[1]; guinea pig, IV 200 mg/kg, 24 hr
  brain/ plasma: 0.22 ± 0.071
[1]; [4]
  Tissue level at Cmax, percent of administered dose, Heart: 0.08 ± 0.01% of administered dose
  Tissue level at Cmax, percent of administered dose, Kidney: 3.65 ± 0.48% of administered dose
  Tissue level at Cmax, percent of administered dose, Liver: 5.25 ± 0.32% of administered dose
  Tissue level at Cmax, percent of administered dose, Lung: 0.85 ± 0.04% of administered dose
  Tissue level at Cmax, percent of administered dose, Spleen: 0.12 ± 0.01% of administered dose
[1]; guinea pig, IV 200 mg/kg, total tissue weight, 200 mg/kg
  Tissue level at Cmax, percent of administered dose, Brain: 0.18% of administered dose and 0.18 ± 0.01% of administered dose
[1]; [5]
  time of tissue Cmax, all tissues except the liver: 5 to 15 min
  time of tissue Cmax, liver: 30 min
[1]; mean over the dose range, IV
  heart, percent of the administered dose at Cmax: 0.06%
[1]; tissues other than liver and kidney, IV
  all other tissues, percent of the administered dose at Cmax: less than 1%
[2]; [6]
  increase in mean AUC0-t: 32 fold
  increase in mean C0: 25 fold
[2]; dose range 10-200 mg/kg IV
  power regression slope, AUC0-t vs dose: 1.13
  power regression slope, C0 vs dose: 1.09
[2]; guinea pig plasma, IM 50 mg/kg
  tmax: 0.5 h
[2]; guinea pig plasma, across four IV doses 10-200 mg/kg
  mean apparent distribution half-life (t1/2α), range: 0.78 to 1.5 h
[2]; [7]
  AUC0-inf: 78.74 ± 3.75 µg·h/mL
  C0: 24.90 ± 1.44 µg/mL
  CL: 0.6418 ± 0.03132 L/h/kg
  T1/2;β: 8.53 ± 1.49 h
  Vd: 7.729 ± 1.08899 L/kg
  t1/2α: 0.87 ± 0.13 h
  AUC0-t: 73.50 ± 2.41 µg·h/mL
[2]; [8]
  AUC0-inf: 17.53 ± 1.35 µg·h/mL
  C0: 6.23 ± 0.15 µg/mL
  CL: 0.59051 ± 0.05187 L/h/kg
  T1/2;β: 10.41 ± 1.54 h
  Vd: 8.67515 ± 1.99977 L/kg
  t1/2α: 0.79 ± 0.07 h
  AUC0-t: 15.27 ± 1.23 µg·h/mL
[2]; [9]
  C0: 42.77 ± 2.5 µg/mL
  CL: 0.54665 ± 0.02744 L/h/kg
  T1/2;β: 10.68 ± 1.94 h
  Vd: 8.37818 ± 1.44868 L/kg
  t1/2α: 1.03 ± 0.28 h
  AUC0-t: 83.80 ± 4.05 µg·h/mL
[2]; [10]
  AUC0-inf: 223.60 ± 14.56 µg·h/mL
  C0: 93.18 ± 3.4 µg/mL
  CL: 0.45589 ± 0.02685 L/h/kg
  T1/2;β: 12.87 ± 2.16 h
  Vd: 8.32203 ± 1.44265 L/kg
  t1/2α: 0.78 ± 0.05 h
  AUC0-t: 188.05 ± 11.10 µg·h/mL
[2]; [11]
  AUC0-inf: 530.83 ± 57.86 µg·h/mL
  C0: 157.66 ± 4.34 µg/mL
  CL: 0.40051 ± 0.04401 L/h/kg
  T1/2;β: 9.75 ± 1.83 h
  Vd: 5.80208 ± 1.32987 L/kg
  t1/2α: 1.50 ± 0.20 h
  AUC0-t: 488.52 ± 63.16 µg·h/mL
[2]; guinea pig, as summarised in abstract
  plasma t1/2: ~1 h
